Laboratory results from patent US10807959B2, “WDR5-MLL1 inhibitors and modulators” (Vanderbilt University, priority 2018, dated 2020).

Biological target: WDR5 (Homo sapiens (Human), UniProt P61964)
Assay: TR-FRET binding assay, displacement of 10mer-Thr-FAM probe from His-tagged WDR5
Details: Inhibition of WDR5 by TR-FRET assay
Description: The LanthaScreenTM Elite Tb-anti-HIS Antibody from ThermoFisher Scientific was used for this purpose. […] The ratio of the 520 and 495 signals are then utilized to generate a dose-response curve to calculate an IC50 value. […] WDR[…] tag protein is used at 2 nM.

Question: How did the Ki turn out when COc1ccnc(CNC(=O)c2cc(CNC3=NCCN3)cc(-c3cc(C)c(F)cc3C)c2)c1 [Example 51, 5-(((4,5-Dihydro-1H-imidazol-2-yl)amino)methyl)-4′-fluoro-N-((4-methoxypyridin-2-yl)methyl)-2′,5′-dimethyl-[1,1′-biphenyl]-3-carboxamide] was run?
Answer: Its Ki is < 0.1 nM.

Question: With COc1cc(CNC(=O)c2cc(CNC3=NCCC3)cc(-c3cccn3C)c2)cc(OC)c1 [Example 58, 3-(((3,4-Dihydro-2H-pyrrol-5-yl)amino)methyl)-N-(3,5-dimethoxybenzyl)-5-(1-methyl-1H-pyrrol-2-yl)benzamide] as the molecule, how does the Ki read?
Answer: The Ki was 5.8 nM.

Question: COc1cc(CNC(=O)c2cc(CNC3=NCCC3)cc(-c3ccncc3C)c2)cc(OC)c1 [Example 61, 3-(((3,4-Dihydro-2H-pyrrol-5-yl)amino)methyl)-N-(3,5-dimethoxybenzyl)-5-(3-methylpyridin-4-yl)benzamide] was tested. Which Ki did it give?
Answer: Its Ki is 1.8 nM.

Question: Which Ki does the source give for COc1cc(CNC(=O)c2cc(CNC3=NCCC3)cc(-c3cc(C)c(F)cc3C)c2)cc(OC)c1 [Example 62, 5-(((3,4-Dihydro-2H-pyrrol-5-yl)amino)methyl)-N-(3,5-dimethoxybenzyl)-4′-fluoro-2′,5′-dimethyl-[1,1′-biphenyl]-3-carboxamide] here?
Answer: Its Ki is 0.21 nM.

Question: Cc1cc(CNC(=O)c2cc(CNC3=NCCC3)cc(-c3ccc(F)c(CO)c3)c2)ccc1Cl [Example 65, N-(4-chloro-3-methylbenzyl)-5-(((3,4-dihydro-2H-pyrrol-5-yl)amino)methyl)-4′-fluoro-3′-(hydroxymethyl)-[1,1′-biphenyl]-3-carboxamide] was tested. Which Ki did it give?
Answer: Its Ki is 4.3 nM.

Question: How did the Ki turn out when Cc1cc(-c2cc(CNC3=NCCC3)cc(C(=O)NCc3ccc(Cl)c(C)c3)c2)c(C)cc1F [Example 66, N-(4-Chloro-3-methylbenzyl)-5-(((3,4-dihydro-2H-pyrrol-5-yl)amino)methyl)-4′-fluoro-2′,5′-dimethyl-[1,1′-biphenyl]-3-carboxamide] was run?
Answer: Its Ki is 0.38 nM.

Question: How did the Ki turn out when Cc1nc(F)ccc1-c1cc(CNC2=NCCN2)cc(C(=O)NCc2ccc(Cl)c(F)c2)n1 [Example 73, N-(4-Chloro-3-fluorobenzyl)-4-(((4,5-dihydro-1H-imidazol-2-yl)amino)methyl)-6′-fluoro-2′-methyl-[2,3′-bipyridine]-6-carboxamide] was run?
Answer: Its Ki is 0.43 nM.

Question: With COc1cc(OC)cc(C(C)NC(=O)c2cc(CNC3=NCCN3)cc(-c3ccc(F)nc3C)n2)c1 (centres unmarked) [Example 75, 4-(((4,5-Dihydro-1H-imidazol-2-yl)amino)methyl)-N-(1-(3,5-dimethoxyphenyl)ethyl)-6′-fluoro-2′-methyl-[2,3′-bipyridine]-6-carboxamide] as the molecule, how does the Ki read?
Answer: Its Ki is 0.8 nM.

Question: Cc1cnc(CNC(=O)c2cc(CNC3=NCCN3)cc(-c3ccc(F)nc3C)n2)cn1 [Example 76, 4-(((4,5-Dihydro-1H-imidazol-2-yl)amino)methyl)-6′-fluoro-2′-methyl-N-((5-methylpyrazin-2-yl)methyl)-[2,3′-bipyridine]-6-carboxamide] was tested. Which Ki did it give?
Answer: The Ki was 32 nM.

Question: Cc1cnc(CNC(=O)c2cc(CNC3=NCCN3)cc(-c3ccc(F)nc3C)n2)nc1 [Example 77, 4-(((4,5-Dihydro-1H-imidazol-2-yl)amino)methyl)-6′-fluoro-2′-methyl-N-((5-methylpyrimidin-2-yl)methyl)-[2,3′-bipyridine]-6-carboxamide] was tested. Which Ki did it give?
Answer: Its Ki is 33 nM.

Question: COc1cc(CNC(=O)c2cc(CNC3=NCCN3)cc(-c3ccc(F)nc3C)n2)cc(OC)c1 [Example 78, 4-(((4,5-Dihydro-1H-imidazol-2-yl)amino)methyl)-N-(3,5-dimethoxybenzyl)-6′-fluoro-2′-methyl-[2,3′-bipyridine]-6-carboxamide] was tested. Which Ki did it give?
Answer: The Ki was 0.72 nM.

Question: With COc1cc(CNC(=O)c2cc(CNC3=NCCN3)cc(-c3ccc(F)nc3C)n2)ccn1 [Example 79, 4-(((4,5-Dihydro-1H-imidazol-2-yl)amino)methyl)-6′-fluoro-N-((2-methoxypyridin-4-yl)methyl)-2′-methyl-[2,3′-bipyridine]-6-carboxamide] as the molecule, how does the Ki read?
Answer: The Ki was 5.74 nM.

Question: Which Ki does the source give for Cc1ncc(CNC(=O)c2cc(CNC3=NCCN3)cc(-c3ccc(F)nc3C)n2)cn1 [Example 80, 4-(((4,5-Dihydro-1H-imidazol-2-yl)amino)methyl)-6′-fluoro-2′-methyl-N-((2-methylpyrimidin-5-yl)methyl)-[2,3′-bipyridine]-6-carboxamide] here?
Answer: Its Ki is 22 nM.

Question: How did the Ki turn out when Cc1ccncc1-c1cc(CNC2=NCCN2)cc(C(=O)NCc2ccc(Cl)c(Cl)c2)n1 [Example 81, N-(3,4-Dichlorobenzyl)-4-(((4,5-dihydro-1H-imidazol-2-yl)amino)methyl)-4′-methyl-[2,3′-bipyridine]-6-carboxamide] was run?
Answer: The Ki was 0.24 nM.

Question: Which Ki does the source give for Cc1cc(-c2cc(CNC3=NCCN3)cc(C(=O)NCc3ccc(Cl)c(Cl)c3)n2)ccn1 [Example 82, N-(3,4-Dichlorobenzyl)-4-(((4,5-dihydro-1H-imidazol-2-yl)amino)methyl)-2′-methyl-[2,4′-bipyridine]-6-carboxamide] here?
Answer: Its Ki is 0.46 nM.

Question: With COc1ncc(C)cc1-c1cc(CNC2=NCCN2)cc(C(=O)NCc2ccc(Cl)c(Cl)c2)n1 [Example 83, N-(3,4-Dichlorobenzyl)-4-(((4,5-dihydro-1H-imidazol-2-yl)amino)methyl)-2′-methoxy-5′-methyl-[2,3′-bipyridine]-6-carboxamide] as the molecule, how does the Ki read?
Answer: The Ki was 0.31 nM.

Question: Cc1cnccc1-c1cc(CNC2=NCCN2)cc(C(=O)NCc2ccc(Cl)c(Cl)c2)n1 [Example 84, N-(3,4-Dichlorobenzyl)-4-(((4,5-dihydro-1H-imidazol-2-yl)amino)methyl)-3′-methyl-[2,4′-bipyridine]-6-carboxamide] was tested. Which Ki did it give?
Answer: The Ki was 0.15 nM.

Question: Which Ki does the source give for COc1ncc(Cl)cc1-c1cc(CNC2=NCCN2)cc(C(=O)NCc2ccc(Cl)c(Cl)c2)n1 [Example 86, 5′-Chloro-N-(3,4-dichlorobenzyl)-4-(((4,5-dihydro-1H-imidazol-2-yl)amino)methyl)-2′-methoxy-[2,3′-bipyridine]-6-carboxamide] here?
Answer: Its Ki is < 0.1 nM.

Question: How did the Ki turn out when CCOc1ncc(C)cc1-c1cc(CNC2=NCCN2)cc(C(=O)NCc2ccc(Cl)c(Cl)c2)n1 [Example 88, N-(3,4-dichlorobenzyl)-4-(((4,5-dihydro-1H-imidazol-2-yl)amino)methyl)-2′-ethoxy-5′-methyl-[2,3′-bipyridine]-6-carboxamide] was run?
Answer: Its Ki is 0.12 nM.

Question: How did the Ki turn out when Cc1cc([C@H](C)NC(=O)c2cc(CNC3=NCCC3)cc(-c3ccc(F)cc3C(F)(F)F)n2)ccc1Cl [Example 92, (S)—N-(1-(4-chloro-3-methylphenyl)ethyl)-4-(((3,4-dihydro-2H-pyrrol-5-yl)amino)methyl)-6-(4-fluoro-2-(trifluoromethyl)phenyl)picolinamide] was run?
Answer: The Ki was 1.5 nM.

Question: For COc1cc(OC)cc(C(C)NC(=O)c2cc(CNC3=NCCC3)cc(-c3ccc(F)cc3C(F)(F)F)n2)c1 (centres unmarked) [Example 93, 4-(((3,4-dihydro-2H-pyrrol-5-yl)amino)methyl)-N-(1-(3,5-dimethoxyphenyl)ethyl)-6-(4-fluoro-2-(trifluoromethyl)phenyl)picolinamide], which Ki is on record?
Answer: The Ki was 3.3 nM.

Question: Which Ki does the source give for COc1ccnc(CNC(=O)c2cc(CNC3=NCCC3)cc(-c3ccc(F)cc3C(F)(F)F)n2)c1 [Example 94, 4-(((3,4-dihydro-2H-pyrrol-5-yl)amino)methyl)-6-(4-fluoro-2-(trifluoromethyl)phenyl)-N-((4-methoxypyridin-2-yl)methyl)picolinamide] here?
Answer: The Ki was 1.2 nM.

Question: How did the Ki turn out when Cc1ccnc(C(NC(=O)c2cc(CNC3=NCCC3)cc(-c3ccc(F)cc3C)n2)C2CC2)c1 (centres unmarked) [Example 95, N-(Cyclopropyl(4-methylpyridin-2-yl)methyl)-4-(((3,4-dihydro-2H-pyrrol-5-yl)amino)methyl)-6-(4-fluoro-2-methylphenyl)picolinamide] was run?
Answer: The Ki was 8.6 nM.

Question: With Cc1cc(C(C)NC(=O)c2cc(CNC3=NCCC3)cc(-c3ccc(F)cc3C(F)(F)F)n2)ncc1Cl (centres unmarked) [Example 96, N-(1-(5-chloro-4-methylpyridin-2-yl)ethyl)-4-(((3,4-dihydro-2H-pyrrol-5-yl)amino)methyl)-6-(4-fluoro-2-(trifluoromethyl)phenyl)picolinamide] as the molecule, how does the Ki read?
Answer: The Ki was 1.5 nM.

Question: Cc1cc(F)ccc1-c1cc(CNC2=NCCC2)cc(C(=O)N[C@@H](C)c2ccc(F)c(C(F)(F)F)c2)n1 [Example 97, (S)-4-(((3,4-dihydro-2H-pyrrol-5-yl)amino)methyl)-6-(4-fluoro-2-methylphenyl)-N-(1-(4-fluoro-3-(trifluoromethyl)phenyl)ethyl)picolinamide] was tested. Which Ki did it give?
Answer: The Ki was 7.3 nM.

Question: Which Ki does the source give for Cc1nc(F)ccc1-c1cc(CNC2=NCCN2)cc(C(=O)NCc2ccc(=O)[nH]c2)n1 [Example 98, 4-(((4,5-dihydro-1H-imidazol-2-yl)amino)methyl)-6′-fluoro-2′-methyl-N-((6-oxo-1,6-dihydropyridin-3-yl)methyl)-[2,3′-bipyridine]-6-carboxamide] here?
Answer: The Ki was 23 nM.

Question: For COc1cc(CNC(=O)c2cc(CNC(=N)N)cc(-c3ccnc(C)c3)c2)cc(OC)c1 [Example 99, N-(3,5-Dimethoxybenzyl)-3-(guanidinomethyl)-5-(2-methylpyridin-4-yl)benzamide], which Ki is on record?
Answer: Its Ki is 1.1 nM.

Question: How did the Ki turn out when Cc1cc(-c2cc(CNC(=N)N)cc(C(=O)NCc3cc(F)cc(Cl)c3)c2)ccn1 [Example 100, N-(3-Chloro-5-fluorobenzyl)-3-(guanidinomethyl)-5-(2-methylpyridin-4-yl)benzamide] was run?
Answer: The Ki was 2.4 nM.

Question: With COc1ccc(CNC(=O)c2cc(CNC(=N)N)cc(-c3ccnc(C)c3)c2)cc1Cl [Example 101, N-(3-Chloro-4-methoxybenzyl)-3-(guanidinomethyl)-5-(2-methylpyridin-4-yl)benzamide] as the molecule, how does the Ki read?
Answer: The Ki was 2.1 nM.

Question: With COc1ccnc(CNC(=O)c2cc(CNC(=N)N)cc(-c3ccnc(C)c3)c2)c1 [Example 102, 3-(Guanidinomethyl)-N-((4-methoxypyridin-2-yl)methyl)-5-(2-methylpyridin-4-yl)benzamide] as the molecule, how does the Ki read?
Answer: Its Ki is 1 nM.

Question: Which Ki does the source give for Cc1cc(-c2cc(CNC(=N)N)cc(C(=O)NCc3ccc(Cl)cn3)c2)ccn1 [Example 103, N-((5-Chloropyridin-2-yl)methyl)-3-(guanidinomethyl)-5-(2-methylpyridin-4-yl)benzamide] here?
Answer: The Ki was 3.3 nM.

Question: How did the Ki turn out when Cc1ccc(CNC(=O)c2cc(CNC(=N)N)cc(-c3ccnc(C)c3)c2)cn1 [Example 104, 3-(guanidinomethyl)-N-((6-methylpyridin-3-yl)methyl)-5-(2-methylpyridin-4-yl)benzamide] was run?
Answer: The Ki was 12 nM.
